Laboratory results published in US20040053847A1, “Diastereomeric peptitdes and pharmaceutical compositions comprising them” (priority 2000, published 2004).
≈ marks a conversion by molar mass, not a printed value. Like-named read-outs stand apart in the source and are kept apart here. Square brackets hold non-standard residues; d marks the D form. Peptide text beside a SMILES is read from it.

Key:
[1] = molecular target: trypsin (from bovine pancreas) (Bos taurus, UniProt P00760); assay: in vitro; conditions: pH 7.3
trypsin (from bovine pancreas), sequence (P00760 24-246): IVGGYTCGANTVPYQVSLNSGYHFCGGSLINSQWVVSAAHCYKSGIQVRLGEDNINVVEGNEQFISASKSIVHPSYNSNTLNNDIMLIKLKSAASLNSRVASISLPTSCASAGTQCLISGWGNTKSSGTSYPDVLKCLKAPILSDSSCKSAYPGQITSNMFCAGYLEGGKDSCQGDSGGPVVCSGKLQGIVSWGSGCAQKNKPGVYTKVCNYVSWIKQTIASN
Description: (§1) In order to reach their target, the diastereomers have to withstand proteolytic digestion by proteases which may occur during the time of their administration site till they reach the target site. The susceptibility of the diastereomer 2 of the invention Is to proteolytic digestion by pepsin (from porcine stomach mucosa, Sigma), trypsin (from bovine pancreas, Sigma), and elastase (from human leukocytes, Sigma) was assessed by reverse-phase HPLC. As a control we used the native, all L-amino acid antimicrobial peptide cecropin B. Equal amounts of the peptides were dissolved in PBS (35 mM phosphate buffer/0.15 M NaCl, pH 7.3) at final concentration of 140 μM to which 25 μM of protease were added. The samples were incubated under agitation for 30 min at 37° C. After the addition of the appropriate protease inhibitor to stop the reaction, aliquots were injected to C18 column and the amounts of the intact diastereomers were evaluated using their absorbance at 215 nm.

[2] = molecular target: pepsin (from porcine stomach mucosa) (Sus scrofa, UniProt P00791); assay: in vitro; conditions: pig, pH 7.3
pepsin (from porcine stomach mucosa), sequence (P00791 60-385): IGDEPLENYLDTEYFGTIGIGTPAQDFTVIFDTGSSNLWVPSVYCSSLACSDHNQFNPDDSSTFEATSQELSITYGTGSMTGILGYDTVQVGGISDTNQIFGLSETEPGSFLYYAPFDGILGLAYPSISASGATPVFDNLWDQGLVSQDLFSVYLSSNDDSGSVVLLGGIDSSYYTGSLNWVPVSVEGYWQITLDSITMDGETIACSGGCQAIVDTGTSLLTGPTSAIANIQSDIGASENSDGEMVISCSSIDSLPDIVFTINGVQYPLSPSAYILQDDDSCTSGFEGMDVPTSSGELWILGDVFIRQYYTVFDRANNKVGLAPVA
Description: as §1

[3] = molecular target: T1, elastase (from human leukocytes) (Homo sapiens, UniProt P08246); assay: Proteolytic digestion assessed by reverse-phase HPLC; format: in vitro ADME
T1 construct: elastase (from human leukocytes, Sigma); purchased Sigma; host or cells: human leukocytes (cell-derived)
T1 sequence (P08246 30-247 limits assumed): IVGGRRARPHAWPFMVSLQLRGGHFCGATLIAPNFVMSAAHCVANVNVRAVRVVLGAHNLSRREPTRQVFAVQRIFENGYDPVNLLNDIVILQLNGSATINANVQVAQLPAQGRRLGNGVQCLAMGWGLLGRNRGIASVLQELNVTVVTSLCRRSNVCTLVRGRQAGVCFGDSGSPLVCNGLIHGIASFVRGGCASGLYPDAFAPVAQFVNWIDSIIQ

[4] = test system: B16 F10 mouse melanoma cell line; assay: In vitro anticancer activity, Trypan blue cell viability, LC50
Description: (§2) The anticancer activity of the diastereomers 1, 2, 8, 9 and 10 was examined against B16 F10 mouse melanoma cell line. Melanoma cells were grown in RPMI-1640 medium supplemented with 10% fetal calf serum and antibiotics, at 37° C., in humidified atmosphere at 5% CO2 and 95% air. In addition, the cell-selectivity of the diastereomeric peptides was studied by examining their effect on NIH-3T3 normal fibroblasts cell line. NIH-3T3 mouse fibroblasts cells were grown in DMEM medium supplemented with 10% bovine calf serum and antibiotics under the same conditions as described above for B16 F10 mouse melanoma cells. Melanoma cells (2×10^5 cells ml^−1) or NIH-3T3 cells (2.5×10^5 cells ml^−1) were seeded in tissue culture plates (3.5 cm). After 48 h, cells were washed thrice with the corresponding medium. Then the cells were incubated at 37° C. in medium (without serum and antibiotics) in the presence of the tested diastereomeric peptides dissolved in PBS, at different concentrations. […] Following 24 h of incubation, the cells were harvested with trypsin (0.25%)-EDTA (0.05%) and centrifuiged for 10 min at 270×g. The precipitated cells were suspended in the corresponding medium and counted in a hemocytometer (Neubauer). Cell viability was determined by Trypan blue dye exclusion.

[5] = as above
Description: as §2

[6] = test system: Mycoplasma pneumoniae; format: cell-based; conditions: 1 h
Description: In order to examine the activity of the diastereomers of the invention against mycoplasma, 500 μl of Mycoplasma pneumoniae cells were introduced into a cell culture flask containing 50 ml of SP-4 growth media (Jacob et al., 1985). The cells were grown at 37° C. for 3-4 days. Before the assay, the mycoplasma cells were washed 3 times with serum-free medium (without fetal calf serum) and then harvested into 5 ml of the same medium. The cells' concentration was adjusted to approximately 1×10^6 cells ml^−1. Thereafter, 150 μl of either diastereomer 1 or 2 in phosphate-buffered saline (PBS) were added to 150 μl mycoplasma cells. The mixture was incubated for 1 hour at room temperature. As a control, cells were incubated with PBS alone. At the end of the incubation period, 150 μl of the mixture were inoculated into tissue culture flasks (in duplicate) containing 15 ml SP-4 media. After 3-4 days, the mycoplasma viability was determined by counting the number of cells grown in each flask.

[7] = test system: Cryptococcus neoformans ATCC 66031; format: cell-based
Description: (§3) The antifungal activity of the diastereomers was examined in sterile 96-well plates (Nunc F96 microtiter plates) in a final volume of 200 μL as follows: 100 μl of a suspension containing fungi at concentration of 1×10^4 Colony-Forming Units (CFU)/ml in culture medium (RPMI 1640, 0.165 M MOPS pH 7.0, with L-glutamine, without NaHCO3) was added to 100 μl of water containing the peptide in serial 2-fold dilutions in water. The fungi were incubated in the presence of the diastereomeric peptides for 24-48 h at 35° C. in a Binder KB115 incubator under agitation. Growth inhibition was determined by measuring the absorbance at 620 nm with a Microplate autoreader E1309 (Bio-tek Instruments). Antifungal activity is expressed as the minimal inhibitory concentration (MIC), the concentration at which 100% inhibition of growth was observed after the incubation time mentioned above. The fungi used were: Aspergillus niger ATCC 9642, Candida albicans ATCC 10231 and Cryptococcus neoformans ATCC 66031.

[8] = test system: Candida albicans ATCC 10231; format: cell-based
Description: as §3

[9] = test system: Aspergillus niger ATCC 9642; format: cell-based
Description: as §3

[10] = Cell selectivity, Trypan blue cell viability, LC50; format: cell-based, mouse; conditions: 50% cell mortality after 24 h incubation, medium without serum, read-out: Lethal Concentration (LC50), NIH-3T3 fibroblasts
[11] = test system: methicilin-resistant Staphylococcus aureus (MRSA) ATCC 700698; format: cell-based
Description: (§4) The antibacterial activity of the peptides was examined in sterile 96-well plates (Nunc F96 microtiter plates) in a final volume of 100 μl as follows: Aliquots (50 μl) of a suspension containing bacteria at concentration of 1×10^6 Colony-Forming Units (CFU)/ml in culture LB (Lauria broth) medium were added to 50 μl of water containing the peptide in serial 2-fold dilutions in water. Inhibition of growth was determined by measuring the absorbance at 600 nm with a Microplate autoreader E1309 (Bio-tek Instruments), after an incubation time of 18-20 h at 37° C. Antibacterial activities were expressed as the minimal inhibitory concentration (MIC), the concentration at which 100% inhibition of growth was observed after 18-20 h of incubation. The bacteria used were: Escherichia coli ATCC 25922, Acinetobacter baumannii ATCC 19606, Pseudomonas aeruginosa ATCC 27853, Staphylococcus aureus ATCC 6538P, Enterococcus faecalis ATCC 29212, Enterobacter cloacae ATCC 49141. The antibacterial activity of peptides 2 and 6 was also examined against resistant bacteria: methicilin-resistant Staphylococcus aureus ([…]) ATCC 700698 and vancomycin-resistant Enterococcus faecium (VRE) ATCC 700221.

[12] = test system: vancomycin-resistant Enterococcus faecium (VRE) ATCC 700221; format: cell-based
Description: as §4

SMILES	metabolised at 0.5 h, 140 μM [1] [%]	metabolised at 0.5 h, 140 μM [2] [%]	metabolised at 0.5 h, 140 μM ([3]; elastase from human leukocytes, 140 μM peptide, 25 μM protease, 30 min at 37° C., PBS pH 7.3, read-out: Proteolytic digestion, Elastase) [%]	Selectivity between melanoma and NIH-3T3 cell lines ([4]; B16 F10 vs NIH-3T3)	CC50 [5] [µg/mL]	MIC against Mycoplasma [6] [µg/mL]	MIC, C. neoformans ATCC 66031 [7] [µg/mL]	Activity against C. albicans [8]	MIC, C. albicans ATCC 10231 [8] [µg/mL]	Activity against A. niger [9]	MIC, A. niger ATCC 9642 [9] [µg/mL]	CC50 [10] [µg/mL]	Lethal Concentration (LC50), B16-F10 melanoma ([4]; 50% cell mortality after 24 h incubation, medium without serum) [µg/mL]	metabolised at 0.5 h, 140 μM ([3]; isolated enzyme elastase, pH 7.3) [%]	CC50 at 24 h ([10]; mouse, NIH-3T3 fibroblasts) [µg/mL]	Activity against resistant bacteria MRSA [11]	Activity against resistant bacteria VRE [12]
CC[C@H](C)[C@H](NC(=O)CNC(=O)[C@H](CC(N)=O)NC(=O)[C@H](CCCNC(=N)N)NC(=O)[C@@H](NC(=O)[C@H](CC(N)=O)NC(=O)[C@H](CCCNC(=N)N)NC(=O)CNC(=O)[C@H](CCSC)NC(=O)[C@H](CCCCN)NC(=O)[C@H](CCC(=O)O)NC(=O)[C@@H](NC(=O)[C@H](CCCCN)NC(=O)[C@H](CCCCN)NC(=O)[C@H](Cc1ccccc1)NC(=O)[C@@H](NC(=O)[C@H](CCCCN)NC(=O)[C@H](Cc1c[nH]c2ccccc12)NC(=O)[C@@H](N)CCCCN)C(C)C)[C@@H](C)CC)[C@@H](C)CC)C(=O)N[C@H](C(=O)N[C@@H](CCCCN)C(=O)N[C@@H](C)C(=O)NCC(=O)N1CCC[C@H]1C(=O)N[C@@H](C)C(=O)N[C@H](C(=O)N[C@@H](C)C(=O)N[C@H](C(=O)N[C@@H](CC(C)C)C(=O)NCC(=O)N[C@@H](CCC(=O)O)C(=O)N[C@@H](C)C(=O)N[C@@H](CCCCN)C(=O)N[C@@H](C)C(=O)N[C@@H](CC(C)C)C(N)=O)C(C)C)[C@@H](C)CC)C(C)C [Cecropin B, cecropin B, reference compound] (H-KWKVFKKIEKMGRNIRNGIVKAGPAIAVLGEAKAL-NH2)	100	100	100														
CC(C)C[C@H](NC(=O)[C@H](CCCCN)NC(=O)[C@@H](CC(C)C)NC(=O)[C@@H](CC(C)C)NC(=O)[C@H](CC(C)C)NC(=O)[C@@H](N)CCCCN)C(=O)N[C@@H](CC(C)C)C(=O)N[C@H](CC(C)C)C(=O)N[C@@H](CCCCN)C(=O)N[C@H](CC(C)C)C(=O)N[C@@H](CC(C)C)C(=O)N[C@@H](CCCCN)C(N)=O [Peptide 1, [D]-L^3,4,8,10-K4L8, reference compound] (H-KL[dL][dL]KLL[dL]K[dL]LK-NH2; N-terminus assumed)				active against both cell lines at similar concentration	90 (≈ 62.7 µM)	50 (≈ 34.8 µM)	4.7 (≈ 3.28 µM)	inactive	>200	inactive	>200	100 (≈ 69.7 µM)					
CC(C)C[C@H](NC(=O)[C@H](CCCCN)NC(=O)[C@H](CC(C)C)NC(=O)[C@@H](CC(C)C)NC(=O)[C@H](CC(C)C)NC(=O)[C@@H](N)CCCCN)C(=O)N[C@@H](CC(C)C)C(=O)N[C@H](CCCCN)C(=O)N[C@H](CCCCN)C(=O)N[C@@H](CC(C)C)C(=O)N[C@@H](CC(C)C)C(=O)N[C@@H](CCCCN)C(=O)N[C@H](CC(C)C)C(=O)N[C@@H](CC(C)C)C(=O)N[C@@H](CCCCN)C(N)=O [Peptide 2, [D]-L^3,13,K^8,9-K6L9] (H-KL[dL]LKLL[dK][dK]LLK[dL]LK-NH2)	32	10				12.5 (≈ 6.93 µM)	1.4 (≈ 0.776 µM)		100 (≈ 55.4 µM)		50 (≈ 27.7 µM)		9	6	30 (≈ 16.6 µM)		
CC(C)C[C@H](NC(=O)[C@H](CC(C)C)NC(=O)[C@@H](CCCCN)NC(=O)[C@@H](CCCCN)NC(=O)[C@H](CC(C)C)NC(=O)[C@@H](CC(C)C)NC(=O)[C@H](CCCNC(=N)N)NC(=O)[C@H](CC(C)C)NC(=O)[C@@H](CC(C)C)NC(=O)[C@H](CC(C)C)NC(=O)[C@@H](N)CCCCN)C(=O)N[C@@H](CCCNC(=N)N)C(=O)N[C@H](CC(C)C)C(=O)N[C@@H](CC(C)C)C(=O)N[C@@H](CCCCN)C(N)=O [Peptide 6, [D]-L^3,6,13,K^8,9-K4R2L9] (H-KL[dL]LR[dL]L[dK][dK]LLR[dL]LK-NH2; N-terminus assumed)							1.5 (≈ 0.806 µM)		150 (≈ 80.6 µM)		200 (≈ 107 µM)					highly active	highly active
